Data published in publication PMC4754833, “Rilpivirine analogs potently inhibit drug-resistant HIV-1 mutants” (Retrovirology, 2016).

Experiments:
HIV-1 RT mutant G190A = test: single round infection assay, G190A; type: cell-based; settings: for fold-change of IC50 of the mutant relative to WT: G190A vs WT; for IC50: Human immunodeficiency virus 1
Protocol: (§1) The human osteosarcoma cell line, HOS, was obtained from Dr. Richard Schwartz (Michigan State University, East Lansing, MI) and grown in Dulbecco’s modified Eagle’s medium (Invitrogen, Carlsbad, CA) supplemented with 5 % (v/v) fetal bovine serum, 5 % newborn calf serum, and penicillin (50 units/ml) plus streptomycin (50 µg/ml; Quality Biological, Gaithersburg, MD). Virion production and single-round infectivity assays were used to determine antiviral activity (IC50 values) of the compounds as previously described.
(§2) pNLNgoMIVR-ΔEnv.LUC has been described previously. The RT open reading frame was removed from pNLNgoMIVR-ΔEnv.LUC (digestion with SpeI and SalI) and inserted between the SpeI and SalI sites of pBluescript II KS+. Using that construct as the wild-type template, we prepared the following HIV-1 RT mutants using the QuikChange II XL (Stratagene, La Jolla, CA) site-directed mutagenesis protocol kit: L100I, K103N, Y181C, Y188L, H221Y, K103N/Y181C, G190A, G190S, M230L, P236L, L100I/K103N, K103N/P225H, V106A/G190A/F227L, V106A, L234I, V106A/F227L, V106A/L234I, V106A/F227L/L234I, E40K, D67E, K101E, V111A, E138K, M184I, M184V, K101E/M184I, K101E/M184V, E138K/M184I, E138K/M184V, K101P, Y181I, and K101P/V179I. The following sense oligonucleotides were used with matching cognate antisense oligonucleotides (not shown) (Integrated DNA Technologies, Coralville, IA) in the mutagenesis: L100I, 5′-[…]-3′; L100I 2-103, 5′-[…]-3′; K103N, 5′-[…]-3′; Y181C, 5′-[…]-3′; Y188L, 5′-[…]-3′; H221Y, 5′-[…]-3′; G190A, 5′-[…]-3′; G190S, 5′-[…]-3′; P225H, 5′-[…]-3′; F227, 5′-[…]-3′; M230L, 5′-[…]-3′; P236L, 5′-[…]-3′; V106A, 5′-[…]-3′; L234I, 5′-[…]-3′; E40K, 5′-[…]-3′; D67E, 5′-[…]-3′; K101E, 5′-[…]-3′; V111A, 5′-[…]-3′; E138K, 5′-[…]-3′; M184I, 5′-[…]-3′; M184V, 5′-[…]-3′; K101P, 5′-[…]-3′; Y181I, 5′-[…]-3′; K101P/V179I, 5′-[…]-3′. The double mutants K103N/Y181C, K103N/P225H, and L100I/K103N were made using the previously generated K103N mutant and the appropriate oligonucleotides to add the second mutation, Y181C, P225, and L100I respectively. The double mutants V106A/F227L and V106A/L234I were prepared using the previously generated V106A mutant and the appropriate oligonucleotides to add the second mutation, F227L and L234I, respectively. The double mutants K101E/M184I and K101E/M184V were constructed using the previously generated K101E mutant and the appropriate oligonucleotides to add the second mutation, M184I and M184V, respectively. The double mutants E138K/M184I and E138K/M184V were constructed using the previously generated E138K mutant and the appropriate oligonucleotides for the second mutation, M184I and M184V, respectively. The triple mutant V106A/F227L/L234I was made using the previously generated V106A/F227L double mutant and the appropriate oligonucleotides for the third mutation, L234I. The triple mutant V106A/G190A/F227L was constructed in a series of steps using the previously generated V106A mutant and the appropriate oligonucleotides for the second mutation, G190A, to generate the double mutant V106A/G190A, and then the triple mutant was made using double mutant V106A/G190A and oligonucleotides for the third mutation, F227L. The DNA sequence of each construct was verified by DNA sequence determination. The sequences encoding the mutant RTs were then subcloned into pNLNgoMIVR-ΔEnv.LUC (between the KpnI and SalI sites) to produce the mutant HIV-1 constructs. These DNA sequences were also checked independently by DNA sequence determination.
(§3) 10.1186/s12977-016-0244-2 The IC50 values (nM) of RPV and the RPV analogs were determined against the NNRTI resistant mutants were measured by using a single round infection assay, n = 4. The concentrations (nM) are measured by reductions in luciferase reporter activity followed by the standard deviations. […]

HIV-1 RT mutant M230L = test: single round infection assay, M230L; type: cell-based; settings: for fold-change of IC50 of the mutant relative to WT: M230L vs WT
Protocol: as §1, §2, §3

[1] = test system: HIV-1 RT mutant L100I/K103N; test: single round infection assay, L100I/K103N; type: cell-based; settings: for fold-change of IC50 of the mutant relative to WT: L100I/K103N vs WT; for IC50: Human immunodeficiency virus 1, L100I/K103N, ± SD, n=4, limit of detection 100 nM
Protocol: as §1, §2, §3

[2] = test system: HIV-1 RT mutant K103N/P225H; test: single round infection assay, K103N/P225H; type: cell-based; settings: for IC50: Human immunodeficiency virus 1; for fold-change of IC50 of the mutant relative to WT: K103N/P225H vs WT
Protocol: as §1, §2, §3

HIV-1 RT mutant K101E = test: single round infection assay, K101E; type: cell-based; settings: for fold-change of IC50 of the mutant relative to WT: K101E vs WT; for IC50: ± SD, n=4
Protocol: as §1, §2, §3

HIV-1 RT mutant E138K = test: single round infection assay, E138K; type: cell-based; settings: for fold-change of IC50 of the mutant relative to WT: E138K vs WT; for IC50: ± SD, n=4
Protocol: as §1, §2, §3

[3] = test system: HIV-1 RT mutant K101E/M184I; test: single round infection assay, K101E/M184I; type: cell-based; settings: K101E/M184I vs WT
Protocol: as §1, §2, §3

[4] = test system: HIV-1 RT mutant E138K/M184V; test: single round infection assay, E138K/M184V; type: cell-based; settings: for fold-change of IC50 of the mutant relative to WT: E138K/M184V vs WT; for IC50: ± SD, n=4
Protocol: as §1, §2, §3

HIV-1 RT mutant K101P = test: single round infection assay, K101P; type: cell-based; settings: for IC50: Human immunodeficiency virus 1
Protocol: as §1, §2, §3

[5] = test system: HIV-1 RT mutant K101P/V179I; test: single round infection assay, K101P/V179I; type: cell-based; settings: Human immunodeficiency virus 1
Protocol: as §1, §2, §3

WT HIV-1 = settings: previous study; cited from earlier work
HIV-1 RT mutant L100I = test system: HIV-1 RT mutant L100I; parameters: method as in PMID 23217210; settings: previous study; cited from earlier work
HIV-1 RT mutant K103N = test system: HIV-1 RT mutant K103N; parameters: method as in PMID 23217210; settings: previous study; cited from earlier work
[6] = Human immunodeficiency virus 1, K101E
[7] = Human immunodeficiency virus 1, E138K
[8] = Human immunodeficiency virus 1, E138K/M184V

For Cc1cc(/C=C/C#N)cc(C)c1Nc1nc(Nc2ccc(C#N)cc2)c2nc[nH]c2n1 [compound 13], the “fold-change of IC50 of the mutant relative to WT” value (HIV-1 RT mutant G190A) was < 2, the IC50 (HIV-1 RT mutant G190A) was 0.3 ± 0.04 nM and the “fold-change of IC50 of the mutant relative to WT” value (HIV-1 RT mutant M230L) was 8. The “fold-change of IC50 of the mutant relative to WT” value [1] was 2, the IC50 [2] was 0.3 ± 0.09 nM and the “fold-change of IC50 of the mutant relative to WT” value [2] was < 2. For the same compound, the “fold-change of IC50 of the mutant relative to WT” value (HIV-1 RT mutant K101E) was 4, the “fold-change of IC50 of the mutant relative to WT” value (HIV-1 RT mutant E138K) was 5 and the “fold-change of IC50 of the mutant relative to WT” value [3] was < 2. The “fold-change of IC50 of the mutant relative to WT” value [4] was 4, the IC50 (HIV-1 RT mutant K101P) was 18.1 nM and the “fold-change of IC50 of the mutant relative to WT” value (HIV-1 RT mutant K101P; K101P vs WT) was 70. The IC50 [5] was > 100 nM, the IC50 (WT HIV-1) was < 7 nM and the IC50 (HIV-1 RT mutant L100I) was < 7 nM. The IC50 (HIV-1 RT mutant K103N) was < 7 nM.

In the case of CC(=O)c1ccc(Nc2nc(Nc3c(C)cc(/C=C/C#N)cc3C)nc3[nH]cnc23)cc1 [compound 14], the IC50 (HIV-1 RT mutant G190A) is reported as 0.13 ± 0.04 nM, the “fold-change of IC50 of the mutant relative to WT” value (HIV-1 RT mutant M230L) is reported as 7 and the IC50 [1] is reported as 12.6 nM. The “fold-change of IC50 of the mutant relative to WT” value [1] was 31, the IC50 [2] was 0.92 ± 0.14 nM and the “fold-change of IC50 of the mutant relative to WT” value [2] was 2. The IC50 (HIV-1 RT mutant K101E; [6]) was < 2.5 nM, the “fold-change of IC50 of the mutant relative to WT” value (HIV-1 RT mutant K101E) was 4 and the IC50 (HIV-1 RT mutant K101E; K101E) was 1.7 ± 0.5 nM. The “fold-change of IC50 of the mutant relative to WT” value (HIV-1 RT mutant E138K) was 6, the IC50 (HIV-1 RT mutant E138K; E138K) was 2.6 ± 0.6 nM and the IC50 (HIV-1 RT mutant E138K; [7]) was < 2.5 nM. The “fold-change of IC50 of the mutant relative to WT” value [3] was < 2, the “fold-change of IC50 of the mutant relative to WT” value [4] was 2 and the IC50 (HIV-1 RT mutant K101P) was > 100 nM. The IC50 [5] was > 100 nM, the IC50 (WT HIV-1) was < 7 nM and the IC50 (HIV-1 RT mutant L100I) was < 7 nM. For the same compound, the IC50 (HIV-1 RT mutant K103N) was < 7 nM.

For Cc1cc(/C=C/C#N)cc(C)c1Nc1nc(Nc2ccc(C(F)(F)F)cc2)c2nc[nH]c2n1 [compound 15], the IC50 (HIV-1 RT mutant G190A) was 0.77 ± 0.19 nM, the IC50 (HIV-1 RT mutant M230L; Human immunodeficiency virus 1, M230L, ± SD, n=4, limit of detection 100 nM) was 16.8 nM and the “fold-change of IC50 of the mutant relative to WT” value (HIV-1 RT mutant M230L) was 10. The IC50 [1] was 15.5 nM, the “fold-change of IC50 of the mutant relative to WT” value [1] was 9 and the IC50 [2] was 1.5 ± 0.31 nM. The IC50 (HIV-1 RT mutant K101E; [6]) was < 6 nM, the “fold-change of IC50 of the mutant relative to WT” value (HIV-1 RT mutant K101E) was 4 and the IC50 (HIV-1 RT mutant K101E; K101E) was 6.2 ± 1.2 nM. The “fold-change of IC50 of the mutant relative to WT” value (HIV-1 RT mutant E138K) was 4, the IC50 (HIV-1 RT mutant E138K; E138K) was 6.3 ± 1.3 nM and the IC50 (HIV-1 RT mutant E138K; [7]) was < 6 nM. The “fold-change of IC50 of the mutant relative to WT” value [3] was < 2, the “fold-change of IC50 of the mutant relative to WT” value [4] was < 2 and the IC50 ([4]; E138K/M184V) was 3.1 ± 0.4 nM. The IC50 [4, 8] was < 6 nM, the IC50 (HIV-1 RT mutant K101P) was > 100 nM and the IC50 [5] was > 100 nM. The IC50 (WT HIV-1) was < 7 nM, the IC50 (HIV-1 RT mutant L100I) was < 7 nM and the IC50 (HIV-1 RT mutant K103N) was < 7 nM.

For COc1ccc(Nc2nc(Nc3c(C)cc(/C=C/C#N)cc3C)nc3[nH]cnc23)cc1 [compound 16], the “fold-change of IC50 of the mutant relative to WT” value (HIV-1 RT mutant G190A) was 2, the IC50 (HIV-1 RT mutant G190A) was 0.37 ± 0.08 nM and the “fold-change of IC50 of the mutant relative to WT” value (HIV-1 RT mutant M230L) was 15. The “fold-change of IC50 of the mutant relative to WT” value [1] was 11, the IC50 [2] was 2.7 ± 0.07 nM and the “fold-change of IC50 of the mutant relative to WT” value [2] was 16. The “fold-change of IC50 of the mutant relative to WT” value (HIV-1 RT mutant K101E) was 5, the “fold-change of IC50 of the mutant relative to WT” value (HIV-1 RT mutant E138K) was 11 and the IC50 (HIV-1 RT mutant E138K; E138K) was 1.9 ± 0.01 nM. For the same compound, the IC50 (HIV-1 RT mutant E138K; [7]) was < 2.5 nM, the “fold-change of IC50 of the mutant relative to WT” value [3] was < 2 and the “fold-change of IC50 of the mutant relative to WT” value [4] was 10. The IC50 ([4]; E138K/M184V) was 1.7 ± 0.35 nM, the IC50 [4, 8] was < 2.5 nM and the IC50 (HIV-1 RT mutant K101P) was > 100 nM. The IC50 [5] was > 100 nM, the IC50 (WT HIV-1) was < 7 nM and the IC50 (HIV-1 RT mutant L100I) was < 7 nM. For the same compound, the IC50 (HIV-1 RT mutant K103N) was < 7 nM.
